Data from PMC10620989, “Going beyond Binary: Rapid Identification of Protein–Protein Interaction Modulators Using a Multifragment Kinetic Target-Guided Synthesis Approach” (Journal of Medicinal Chemistry, 2023).
Values joined by “and” are separate entries in the source; they are usually repeats but may differ in a detail not shown here. Equal entries are not always repeated. Where two headings read alike, the source gives them in different places.

Assays:
[1] = molecular target: GST-tagged mouse Mcl-1-(152–309) (Mus musculus, UniProt P97287); assay: Fluorescence polarization competitive binding assay, GST-Mcl-1 / FITC-Bim-BH3; design: selectivity index: reference not given here; details: for inhibition at 50 µM: compound at 50 µM
Chain of GST-tagged mouse Mcl-1-(152–309) (P97287 152-309): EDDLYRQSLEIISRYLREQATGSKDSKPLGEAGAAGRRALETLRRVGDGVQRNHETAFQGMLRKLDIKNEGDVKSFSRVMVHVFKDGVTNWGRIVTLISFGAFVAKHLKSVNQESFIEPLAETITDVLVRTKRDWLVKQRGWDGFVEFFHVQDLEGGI

Mcl-1 [2] = molecular target: T1, Mcl-1 (Mus musculus, UniProt P97287); assay: Multifragment KTGS screen against Mcl-1 (5 TA x 38 SZ per well), LC-MS/MS; details: multifragment KTGS, 190 combinations per well, 10 μM Mcl-1, 20 μM each fragment, pH 7.4, 37 °C, 10 h; peak area with protein / without protein
T1 sequence (P97287 whole entry, the tested form may be a part): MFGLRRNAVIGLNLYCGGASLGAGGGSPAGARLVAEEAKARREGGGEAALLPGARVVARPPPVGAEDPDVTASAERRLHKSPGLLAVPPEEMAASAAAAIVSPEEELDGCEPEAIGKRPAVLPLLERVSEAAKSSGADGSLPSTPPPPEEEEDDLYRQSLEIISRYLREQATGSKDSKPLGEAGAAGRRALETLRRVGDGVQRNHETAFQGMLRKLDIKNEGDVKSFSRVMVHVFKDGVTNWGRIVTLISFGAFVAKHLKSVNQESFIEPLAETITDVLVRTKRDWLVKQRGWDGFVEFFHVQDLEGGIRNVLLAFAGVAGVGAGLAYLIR

GST-Bcl-XL = GST-Bcl-XL (Homo sapiens, UniProt Q07817); assay: Fluorescence polarization assay, GST-Bcl-XL / fluorescein-labeled Bak BH3 peptide; type: binding; details: FP, GST-Bcl-XL and fluorescein-labeled Bak BH3 peptide; ND = not detected
Chain of GST-Bcl-XL (Q07817 whole entry): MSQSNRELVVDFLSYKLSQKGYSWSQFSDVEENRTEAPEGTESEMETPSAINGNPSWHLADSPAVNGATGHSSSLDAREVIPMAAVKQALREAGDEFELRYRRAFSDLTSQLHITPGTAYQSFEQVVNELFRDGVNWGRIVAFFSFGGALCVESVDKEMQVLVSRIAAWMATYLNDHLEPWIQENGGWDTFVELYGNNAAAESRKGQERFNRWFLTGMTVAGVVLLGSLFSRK

Mcl-1 [3] = molecular target: T1, Mcl-1; assay: Binary KTGS incubation (1 TA x 1 SZ) with Mcl-1, LC-MS/MS; details: binary incubation mixtures with and without Mcl-1
[4] = FP, GST-Mcl-1 and fluorescein-labeled Bim BH3 peptide, read-out: IC50 on Mcl-1

Row | SMILES | IC50 [1, 4] | inhibition at 50 µM ([1]; FP) | selectivity index ([1]; quotient of the IC50 toward Bcl-XL over the IC50 toward Mcl-1) | Amplification coefficient 5TA x 38SZ (Mcl-1 [2]) | IC50 (GST-Bcl-XL) | Amplification coefficient 1TA x 1SZ (Mcl-1 [3]) | IC50 on Bcl-XL (GST-Bcl-XL) | IC50 ([1]; IC50 on Mcl-1) | selectivity index [1]
1 | O=C(NS(=O)(=O)c1ccc(NCCSc2ccccc2)c([N+](=O)[O-])c1)c1ccc(CCc2ccccn2)cc1 [SZ4TA17, O=C(NS(C1=CC=C(NCCSC2=CC=CC=C2)C([N+]([O-])=O)=C1)(=O)=O)C3=CC=C(CCC4=NC=CC=C4)C=C3] | 61 µM and 60.6 µM | 44.7% | 0.03 | 8 | 2.1 µM and 2.08 µM | 10 |  |  | 
2 | O=C(NS(=O)(=O)c1ccc(NCCSc2ccccc2)c([N+](=O)[O-])c1)c1ccc2c(ccn2Cc2ccc(C(F)(F)F)cc2C(F)(F)F)c1 [SZ4TA30, O=C(NS(C1=CC=C(NCCSC2=CC=CC=C2)C([N+]([O-])=O)=C1)(=O)=O)C3=CC(C=CN4CC5=CC=C(C(F)(F)F)C=C5C(F)(F)F)=C4C=C3] | 26.1 µM | 80.7% |  | 20 | > 50 µM | 4 |  |  | 
3 | O=C(NS(=O)(=O)c1ccc(CNc2cccc([N+](=O)[O-])c2)cc1)c1ccc(CN2C(=O)C(c3ccc(F)cc3F)=C(c3ccc(F)cc3F)C2=O)cc1 [SZ12TA42, O=C(NS(C1=CC=C(CNC2=CC=CC([N+]([O-])=O)=C2)C=C1)(=O)=O)C3=CC=C(CN4C(C(C5=C(F)C=C(F)C=C5)=C(C6=CC=C(F)C=C6F)C4=O)=O)C=C3] | 13.6 µM | 89.4% |  | 9 |  | 6 | below the detectable threshold |  | 
4 | O=C(NS(=O)(=O)c1ccc(CN(CCSc2ccccc2)Cc2c(F)cccc2Cl)cc1)c1ccccc1 [SZ15TA1, O=C(NS(C1=CC=C(CN(CCSC2=CC=CC=C2)CC3=C(F)C=CC=C3Cl)C=C1)(=O)=O)C4=CC=CC=C4] |  | 92.5% |  | 13 | 29.1 µM | 5 |  | 9.7 µM | 
5 | Cc1nc(-c2ccccc2)sc1C(=O)NS(=O)(=O)c1ccc(CN(CCSc2ccccc2)Cc2c(F)cccc2Cl)cc1 [SZ15TA3, O=C(NS(C1=CC=C(CN(CCSC2=CC=CC=C2)CC3=C(F)C=CC=C3Cl)C=C1)(=O)=O)C4=C(C)N=C(C5=CC=CC=C5)S4] |  | 95.9% |  | 10 | 36.4 µM | 5 |  | 5.8 µM | 
6 | COc1cc(OC)cc(C(=O)NS(=O)(=O)c2ccc(CN(CCSc3ccccc3)Cc3c(F)cccc3Cl)cc2)c1 [SZ15TA5, O=C(NS(C1=CC=C(CN(CCSC2=CC=CC=C2)CC3=C(F)C=CC=C3Cl)C=C1)(=O)=O)C4=CC(OC)=CC(OC)=C4] |  | > 99% |  | 9 | 53 µM | 4 |  | 13.4 µM | 4.0
7 | O=C(NS(=O)(=O)c1ccc(CN(CCSc2ccccc2)Cc2c(F)cccc2Cl)cc1)c1ccc(OC(F)(F)F)cc1 [SZ15TA8, O=C(NS(C1=CC=C(CN(CCSC2=CC=CC=C2)CC3=C(F)C=CC=C3Cl)C=C1)(=O)=O)C4=CC=C(OC(F)(F)F)C=C4] |  | 96.5% |  | 7 | 47 µM | 6 |  | 7.6 µM | 6.2
8 | O=C(NS(=O)(=O)c1ccc(CN(CCSc2ccccc2)Cc2c(F)cccc2Cl)cc1)c1ccc(CCc2ccccn2)cc1 [SZ15TA17, O=C(NS(C1=CC=C(CN(CCSC2=CC=CC=C2)CC3=C(F)C=CC=C3Cl)C=C1)(=O)=O)C4=CC=C(CCC5=NC=CC=C5)C=C4] |  | 89.5% |  | 7 | 55.9 µM | 7 |  | 20.2 µM | 
9 | O=C(NS(=O)(=O)c1ccc(CN(CCSc2ccccc2)Cc2c(F)cccc2Cl)cc1)c1ccc(-c2ccccn2)cc1 [SZ15TA25, O=C(NS(C1=CC=C(CN(CCSC2=CC=CC=C2)CC3=C(F)C=CC=C3Cl)C=C1)(=O)=O)C4=CC=C(C5=NC=CC=C5)C=C4] |  | 89% |  | 15 | 54.9 µM | 4.5 |  | 15.3 µM | 
10 | COc1cccc(CN(CCSc2ccccc2)Cc2ccc(S(=O)(=O)NC(=O)c3sc(-c4ccccc4)nc3C)cc2)c1 [SZ17TA3, O=C(NS(C1=CC=C(CN(CC2=CC(OC)=CC=C2)CCSC3=CC=CC=C3)C=C1)(=O)=O)C4=C(C)N=C(C5=CC=CC=C5)S4] | 8.6 µM | > 99% |  | 25 | 50 µM | 12 |  |  | 
11 | COc1cccc(CN(CCSc2ccccc2)Cc2ccc(S(=O)(=O)NC(=O)c3cccc4ccccc34)cc2)c1 [SZ17TA7, O=C(NS(C1=CC=C(CN(CC2=CC(OC)=CC=C2)CCSC3=CC=CC=C3)C=C1)(=O)=O)C4=C(C=CC=C5)C5=CC=C4] | 20.1 µM | 87.3% |  | 10 | 72 µM | 12 |  |  | 
12 | COc1cccc(CN(CCSc2ccccc2)Cc2ccc(S(=O)(=O)NC(=O)c3ccc4c(c3)c(C(=O)c3cccs3)cn4C)cc2)c1 [SZ17TA45, O=C(NS(C1=CC=C(CN(CCSC2=CC=CC=C2)CC3=CC(OC)=CC=C3)C=C1)(=O)=O)C4=CC(C(C(C5=CC=CS5)=O)=CN6C)=C6C=C4] |  | 34.5% |  | 16 |  | 20 |  |  | 
13 | CCOc1ccc(-c2ccc3c(c2)c(C(=O)NS(=O)(=O)c2cccc4c(N(C)C)cccc24)cn3C)cc1F [SZ21TA23, O=C(NS(C1=CC=CC2=C1C=CC=C2N(C)C)(=O)=O)C(C3=C4C=CC(C5=CC=C(OCC)C(F)=C5)=C3)=CN4C] |  | 42.8% |  | 7 |  | 4 |  |  | 
14 | Cn1cc(C(=O)c2cccs2)c2cc(C(=O)NS(=O)(=O)CCN(CCSc3ccccc3)Cc3ccc4c(c3)OCO4)ccc21 [SZ28TA45, O=C(NS(CCN(CC1=CC=C(OCO2)C2=C1)CCSC3=CC=CC=C3)(=O)=O)C4=CC(C(C(C5=CC=CS5)=O)=CN6C)=C6C=C4] |  | 54% |  | 8 |  | 5 |  |  | 
15 | Cc1nc(-c2ccccc2)sc1C(=O)NS(=O)(=O)c1ccc(CN(CCSc2ccccc2)Cc2ccc3c(c2)OCO3)cc1 [SZ31TA3, O=C(NS(C1=CC=C(CN(CCSC2=CC=CC=C2)CC3=CC(OCO4)=C4C=C3)C=C1)(=O)=O)C5=C(C)N=C(C6=CC=CC=C6)S5] | 9.4 µM | > 99% |  | 15 |  | 7 |  |  | 
16 | O=C(NS(=O)(=O)c1ccc(CN(CCSc2ccccc2)Cc2ccc3c(c2)OCO3)cc1)c1ccc(OC(F)(F)F)cc1 [SZ31TA8, O=C(NS(C1=CC=C(CN(CCSC2=CC=CC=C2)CC3=CC(OCO4)=C4C=C3)C=C1)(=O)=O)C5=CC=C(OC(F)(F)F)C=C5] | 5.9 µM | > 99% |  | 7 |  | 4 |  |  | 
17 | O=C(NS(=O)(=O)c1ccc(CN(CCSc2ccccc2)Cc2ccc3c(c2)OCO3)cc1)c1ccc(-c2ccc(F)cc2)cc1 [SZ31TA14, O=C(NS(C1=CC=C(CN(CC2=CC(OCO3)=C3C=C2)CCSC4=CC=CC=C4)C=C1)(=O)=O)C5=CC=C(C6=CC=C(F)C=C6)C=C5] |  | 59.5% |  | 10 |  | 4 |  |  | 
18 | Cn1cc(C(=O)C2CCCCC2)c2cc(C(=O)NS(=O)(=O)c3ccc(CN(CCSc4ccccc4)Cc4ccc5c(c4)OCO5)cc3)ccc21 [SZ31TA40, O=C(NS(C1=CC=C(CN(CCSC2=CC=CC=C2)CC3=CC(OCO4)=C4C=C3)C=C1)(=O)=O)C5=CC=C6C(C(C(C7CCCCC7)=O)=CN6C)=C5] |  | -52.4% |  | 56 |  | 8 |  |  | 
19 | O=C(NS(=O)(=O)c1ccc(CN(CCSc2ccccc2)Cc2ccc3c(c2)OCO3)cc1)c1cccc(NCCc2ccccc2)c1 [SZ31TA44, O=C(NS(C1=CC=C(CN(CC2=CC(OCO3)=C3C=C2)CCSC4=CC=CC=C4)C=C1)(=O)=O)C5=CC(NCCC6=CC=CC=C6)=CC=C5] |  | 36.5% |  | 10 |  | 12 |  |  | 
20 | Cn1cc(C(=O)c2cccs2)c2cc(C(=O)NS(=O)(=O)c3ccc(CN(CCSc4ccccc4)Cc4ccc5c(c4)OCO5)cc3)ccc21 [SZ31TA45, O=C(NS(C1=CC=C(CN(CC2=CC(OCO3)=C3C=C2)CCSC4=CC=CC=C4)C=C1)(=O)=O)C5=CC(C(C(C6=CC=CS6)=O)=CN7C)=C7C=C5] |  | 40.2% |  | 25 |  | 6 |  |  | 
21 | O=C(NS(=O)(=O)c1ccc(-c2ccc(Oc3ccccc3)cc2)cc1)c1cccc2ccccc12 [SZ35TA7, O=C(NS(C1=CC=C(C2=CC=C(OC3=CC=CC=C3)C=C2)C=C1)(=O)=O)C4=CC=CC5=C4C=CC=C5] |  | 87.8% |  | 25 |  | 4 |  |  | 
22 | O=C(NS(=O)(=O)c1ccc(-c2ccc(Oc3ccccc3)cc2)cc1)c1ccc(CCc2ccccn2)cc1 [SZ35TA17, O=C(NS(C1=CC=C(C2=CC=C(OC3=CC=CC=C3)C=C2)C=C1)(=O)=O)C4=CC=C(CCC5=NC=CC=C5)C=C4] |  | 89.2% |  | 9 |  | 9 |  |  | 
23 | COc1ccc(Cc2ccc(C(=O)NS(=O)(=O)c3ccc(-c4ccc(Oc5ccccc5)cc4)cc3)cc2)c(OC)c1OC [SZ35TA24, O=C(NS(C1=CC=C(C2=CC=C(OC3=CC=CC=C3)C=C2)C=C1)(=O)=O)C4=CC=C(CC5=CC=C(OC)C(OC)=C5OC)C=C4] |  | 76.4% |  | 9 |  | 8 |  |  | 
